Among the data in patent US9708286B2, “Ingenol-3-acylates III and ingenol-3-carbamates” (LEO Laboratories Limited, priority 2010, dated 2017) are EC50 values, retold here.

Structures are written as SMILES.

Type in all cases: cell-based
Assay [1] relates to HeLa cells. The experiment in a line: Necrosis assay. To be noted: Homo sapiens, HeLa, 0.5 h, read-out: HeLa necrosis EC50 range. The essentials:
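HeLa cells treated with compound at 10 μM to 400 μM (final) for 30 min at 37° C., viability then measured by PrestoBlue fluorescence (ex 535/em 630 nm). Normalized to 1% DMSO and 400 μM ingenol mebutate controls; AbsEC50 from four-parameter sigmoidal fit.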

Assay [2] has as its system PMN's (polymorphonuclear leukocytes). The experiment in a line: Neutrophil oxidative burst. To be noted: Leukocyte, 40 min, read-out: Neutrophil oxidative burst Rel EC50 range, PMN from buffy coats, 40 min at RT, hydroethidine fluorescence; normalized to 5×10^−7 M PEP0005. The method, boiled down: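 Human buffy-coat neutrophils (2.5×10^5/well) in HBSS with 0.1% BSA, 5 mM glucose treated with compound premixed with 10 μM hydroethidine for 40 min at RT; fluorescence read at 485/579 nm. Normalized to 5×10^−7 M PEP0005; Rel EC50 is midway between fitted top and bottom, Abs EC50 gives 50% of PEP0005 maximum.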

In assay [3] the test system is Primary human epidermal keratinocytes, HeKa. The experiment in a line: HeKa cytokine release (IL-8). Particulars: Homo sapiens, HEKa, 6 h, read-out: HeKa cytokine release (IL-8) Rel EC50 range. The method, boiled down: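 Seeded cells exposed to compound dilutions for 6 h at 37° C; IL-8 in supernatant quantified by MSD sandwich electrochemiluminescence immunoassay. Effects normalized to positive control (1.5×10^−7 M PEP0005), four-parameter sigmoidal fit; Rel EC50 is concentration midway between fitted top and bottom.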

Consider `CC1=C[C@]23C(=O)[C@@H](C=C(CO)[C@@H](O)[C@]2(O)[C@H]1OC(=O)c1c(C)c2ccccc2n1C)[C@H]1[C@@H](C[C@H]3C)C1(C)C` [Compound 571, Ingenol 3-(1,3-dimethylindole-2-carboxylate)], for which the half-maximal effective concentration (EC50) was below 150000 nM in assay [1], below 20 nM in assay [2] and below 20 nM in assay [3].

On to `COc1ccc2c(c1)c(C)c(C(=O)O[C@H]1C(C)=C[C@]34C(=O)[C@@H](C=C(CO)[C@@H](O)[C@]13O)[C@H]1[C@@H](C[C@H]4C)C1(C)C)n2C` [Compound 572, Ingenol 3-(5-methoxy-1,3-dimethyl-indole-2-carboxylate)], for which the figures for the EC50 in assay [1], in assay [2] and in assay [3] were below 150000 nM, below 20 nM and below 20 nM, respectively.

`CC1=C[C@]23C(=O)[C@@H](C=C(CO)[C@@H](O)[C@]2(O)[C@H]1OC(=O)c1c(-c2ccccc2)c2ccccc2n1C)[C@H]1[C@@H](C[C@H]3C)C1(C)C` [Compound 574, Ingenol 3-(1-methyl-3-phenyl-indole-2-carboxylate)]: the figures for the EC50 in assay [1], in assay [2] and in assay [3] were below 150000 nM, below 20 nM and below 20 nM, respectively.

As to `CC1=C[C@]23C(=O)[C@@H](C=C(CO)[C@@H](O)[C@]2(O)[C@H]1OC(=O)c1c(C)noc1C(F)(F)F)[C@H]1[C@@H](C[C@H]3C)C1(C)C` [Compound 575, Ingenol 3-(3-methyl-5-(trifluoromethyl)isoxazole-4-carboxylate)], the values for the EC50 in assay [1], in assay [2] and in assay [3] were below 150000 nM, below 20 nM and below 20 nM, respectively.

For `CC1=C[C@]23C(=O)[C@@H](C=C(CO)[C@@H](O)[C@]2(O)[C@H]1OC(=O)c1c(C)ccn1C)[C@H]1[C@@H](C[C@H]3C)C1(C)C` [Compound 576, Ingenol 3-(1,3-dimethylpyrrole-2-carboxylate)], the EC50 is below 150000 nM in assay [1], below 20 nM in assay [2] and below 20 nM in assay [3].

As to `CC1=C[C@]23C(=O)[C@@H](C=C(CO)[C@@H](O)[C@]2(O)[C@H]1OC(=O)c1c(C)nn(CC(F)(F)F)c1C)[C@H]1[C@@H](C[C@H]3C)C1(C)C` [Compound 577, Ingenol 3-(3,5-dimethyl-1-(2,2,2-trifluoroethyl)pyrazole-4-carboxylate)], the half-maximal effective concentration (EC50) is 150000 to 350000 nM in assay [1], 20 to 100 nM in assay [2] and below 20 nM in assay [3].

Regarding `CC1=C[C@]23C(=O)[C@@H](C=C(CO)[C@@H](O)[C@]2(O)[C@H]1OC(=O)c1cc(C)n(C2CC2)c1C)[C@H]1[C@@H](C[C@H]3C)C1(C)C` [Compound 578, Ingenol 3-(1-cyclopropyl-2,5-dimethyl-pyrrole-3-carboxylate)], the EC50 is below 150000 nM in assay [1], below 20 nM in assay [2] and below 20 nM in assay [3].

Turning to `CC1=C[C@]23C(=O)[C@@H](C=C(CO)[C@@H](O)[C@]2(O)[C@H]1OC(=O)c1cc(C)n(C)c1C)[C@H]1[C@@H](C[C@H]3C)C1(C)C` [Compound 579, Ingenol 3-(1,2,5-trimethylpyrrole-3-carboxylate)], the EC50 in assay [1] was 150000 to 350000 nM; in assay [2] it was below 20 nM; in assay [3], below 20 nM.

As to `CC1=C[C@]23C(=O)[C@@H](C=C(CO)[C@@H](O)[C@]2(O)[C@H]1OC(=O)c1c(C)c[nH]c1C)[C@H]1[C@@H](C[C@H]3C)C1(C)C` [Compound 580, Ingenol 3-(2,4-dimethyl-1H-pyrrole-3-carboxylate)], the EC50 in assay [1] was 150000 to 350000 nM; in assay [2], above 100 nM; in assay [3], above 100 nM.

As to `CC1=C[C@]23C(=O)[C@@H](C=C(CO)[C@@H](O)[C@]2(O)[C@H]1OC(=O)c1cccn1C)[C@H]1[C@@H](C[C@H]3C)C1(C)C` [Compound 581, Ingenol 3-(1-methylpyrrole-2-carboxylate)], the figures for the 50% effective concentration (EC50) in assay [1], in assay [2] and in assay [3] were 150000 to 350000 nM, below 20 nM and below 20 nM, respectively.

`CC1=C[C@]23C(=O)[C@@H](C=C(CO)[C@@H](O)[C@]2(O)[C@H]1OC(=O)c1cc(C)c[nH]1)[C@H]1[C@@H](C[C@H]3C)C1(C)C` [Compound 582, Ingenol 3-(4-methyl-1H-pyrrole-2-carboxylate)]: the concentration for a half-maximal effect (EC50) is 150000 to 350000 nM in assay [1], below 20 nM in assay [2] and below 20 nM in assay [3].

Turning to `CC1=C[C@]23C(=O)[C@@H](C=C(CO)[C@@H](O)[C@]2(O)[C@H]1OC(=O)c1ccc(C)n1C)[C@H]1[C@@H](C[C@H]3C)C1(C)C` [Compound 583, Ingenol 3-(1,5-dimethylpyrrole-2-carboxylate)], the concentration for a half-maximal effect (EC50) in assay [1] is 150000 to 350000 nM; in assay [2], below 20 nM; in assay [3], below 20 nM.

For `CC1=C[C@]23C(=O)[C@@H](C=C(CO)[C@@H](O)[C@]2(O)[C@H]1OC(=O)c1[nH]ccc1C)[C@H]1[C@@H](C[C@H]3C)C1(C)C` [Compound 584, Ingenol 3-(3-methyl-1H-pyrrole-2-carboxylate)], the concentration for a half-maximal effect (EC50) in assay [1] was 150000 to 350000 nM; in assay [2], below 20 nM; in assay [3] it was below 20 nM.

Turning to `CC1=C[C@]23C(=O)[C@@H](C=C(CO)[C@@H](O)[C@]2(O)[C@H]1OC(=O)c1cccn1C1CC1)[C@H]1[C@@H](C[C@H]3C)C1(C)C` [Compound 585, Ingenol 3-(1-cyclopropylpyrrole-2-carboxylate)], the EC50 in assay [1] was below 150000 nM; in assay [2], below 20 nM; in assay [3], below 20 nM.

Consider `CCn1cc(C)c(C(=O)O[C@H]2C(C)=C[C@]34C(=O)[C@@H](C=C(CO)[C@@H](O)[C@]23O)[C@H]2[C@@H](C[C@H]4C)C2(C)C)c1C` [Compound 586, Ingenol 3-(1-ethyl-2,4-dimethyl-pyrrole-3-carboxylate)], for which the figures for the EC50 in assay [1], in assay [2] and in assay [3] were below 150000 nM, below 20 nM and below 20 nM, respectively.

Regarding `C=CCn1cc(C)c(C(=O)O[C@H]2C(C)=C[C@]34C(=O)[C@@H](C=C(CO)[C@@H](O)[C@]23O)[C@H]2[C@@H](C[C@H]4C)C2(C)C)c1C` [Compound 587, Ingenol 3-(1-allyl-2,4-dimethyl-pyrrole-3-carboxylate)], the EC50 was below 150000 nM in assay [1], below 20 nM in assay [2] and below 20 nM in assay [3].

For `CC1=C[C@]23C(=O)[C@@H](C=C(CO)[C@@H](O)[C@]2(O)[C@H]1OC(=O)c1c(C)cn(CC2CC2)c1C)[C@H]1[C@@H](C[C@H]3C)C1(C)C` [Compound 588, Ingenol 3-(1-(cyclopropylmethyl)-2,4-dimethyl-pyrrole-3-carboxylate)], the EC50 in assay [1] is below 150000 nM; in assay [2], below 20 nM; in assay [3], below 20 nM.

For `COCCn1cc(C)c(C(=O)O[C@H]2C(C)=C[C@]34C(=O)[C@@H](C=C(CO)[C@@H](O)[C@]23O)[C@H]2[C@@H](C[C@H]4C)C2(C)C)c1C` [Compound 589, Ingenol 3-(1-(2-methoxyethyl)-2,4-dimethyl-pyrrole-3-carboxylate)], the EC50 in assay [1] was below 150000 nM; in assay [2] it was 20 to 100 nM; in assay [3], below 20 nM.

`CC1=C[C@]23C(=O)[C@@H](C=C(CO)[C@@H](O)[C@]2(O)[C@H]1OC(=O)N(C)c1ccccc1)[C@H]1[C@@H](C[C@H]3C)C1(C)C` [Compound 705, Ingenol 3-(N-methyl-N-phenyl-carbamate)]: the EC50 in assay [1] was 150000 to 350000 nM; in assay [2] it was below 20 nM; in assay [3] it was below 20 nM.

As for `CCN(CC)C(=O)O[C@H]1C(C)=C[C@]23C(=O)[C@@H](C=C(CO)[C@@H](O)[C@]12O)[C@H]1[C@@H](C[C@H]3C)C1(C)C` [Compound 706, Ingenol 3-(N,N-diethyl-carbamate)], the results for the EC50 in assay [1], in assay [2] and in assay [3] were above 350000 nM, below 20 nM and 20 to 100 nM, respectively.

As to `CC1=C[C@]23C(=O)[C@@H](C=C(CO)[C@@H](O)[C@]2(O)[C@H]1OC(=O)N(C)C1CCCCC1)[C@H]1[C@@H](C[C@H]3C)C1(C)C` [Compound 709, Ingenol 3-(N-cyclohexyl-N-methyl-carbamate)], the EC50 in assay [1] is 150000 to 350000 nM; in assay [2], below 20 nM; in assay [3], below 20 nM.

Take `CC1=C[C@]23C(=O)[C@@H](C=C(CO)[C@@H](O)[C@]2(O)[C@H]1OC(=O)N1CCCC(C)(C)C1)[C@H]1[C@@H](C[C@H]3C)C1(C)C` [Compound 713, Ingenol 3-(3,3-dimethyl-piperidine-1-carboxylate)]: the EC50 is 150000 to 350000 nM in assay [1], 20 to 100 nM in assay [2] and below 20 nM in assay [3].

As for `CC1=C[C@]23C(=O)[C@@H](C=C(CO)[C@@H](O)[C@]2(O)[C@H]1OC(=O)N(C)C1CCCc2ccccc21)[C@H]1[C@@H](C[C@H]3C)C1(C)C` (stereo partly drawn) [Compound 714, Ingenol 3-(N-Methyl-N-tetralin-1-yl-carbamate)], the concentration giving a half-maximal response (EC50) in assay [1] is below 150000 nM; in assay [2], above 100 nM; in assay [3], below 20 nM.

Usually EC50 stands for the concentration needed to bring the measured effect to its halfway point.
